Measurements as given in patent US20070202079A1, “Therapeutic compositions and methods useful in modulating protein tyrosine phosphatases” (priority 2006, published 2007).
Values belong to the molecule of their own block, whether it stands above or below them.

Assays:
[1] = target: T1, SHP-1 (Mus musculus, UniProt P29351); test: in vitro PTPase assay, GST/SHP-1; assay type: biochemical; details: for inhibitory activity against SHP-1: 3-4 μg/ml or 10-100 μg/ml
T1 construct: made in house
Protocol: In vitro PTPase activities were measured using the commercial protein tyrosine phosphatase assay kit (Upstate Biotechnology, Inc. (“UBI”)) following established procedure known to one of skill in the art. […] Briefly, 0.01 μg of GST/PTPase fusion proteins was incubated in 50 μl of Tris buffer (10 mM Tris, pH 7.4) containing different concentrations of inhibitors or chemicals (0-1,000 μg/ml) at 22° C. for 10 minutes, followed by addition of 0.2 mM of the phosphotyrosine peptide and incubation at 22° […] 100 μl of Malachite Green solution was added and incubated for 5 minutes, and the absorbance at 660 nm was measured after 5 minutes.
To assess the reversibility of inhibition of SHP-1 by PTPase inhibitors, GST/SHP-1 fusion protein bound on glutathione beads were pre-incubated in cold Tris buffer or Tris buffer containing the PTPase inhibitors at 4° C. for 30 minutes. The beads were then either subjected to in vitro PTPase assays or washed 3 times in Tris buffer then subjected to in vitro PTPase assays.
Briefly, individual PTPases (0.1 μg/reaction) in 50 μL of PTPase buffer (50 mM Tris, pH 7.4) were incubated at 22° C. for 10 minutes or as indicated in the absence or presence of inhibitory compounds. Substrates (0.2 mM phosphotyrosine peptide) were then added and allowed to react at 22° C. for 18 hrs. PTPase activity of individual reactions was measured by adding 100 μL of malachite green solution (UBI) and then quantifying the amounts of free phosphate cleaved by the PTPase from the peptide substrate by spectrometry (OD660 nm). […] Relative PTPase activities were calculated based on the formula: (PTPase activity in the presence of an inhibitory compound/PTPase activity in the absence of the compound)× 100%. To assess the reversibility of PTPase inhibition, GST fusion proteins of the PTPases bound on glutathione beads (Pharmacia) were pre-incubated with cold Tris buffer (50 mM Tris, pH 7.0) or Tris buffer containing the inhibitor at 4° C. for 30 minutes. The beads were then washed three times in cold Tris buffer or not washed prior to subjecting to in vitro PTPase assays.

[2] = test system: WM9 cells; test: WM9 cell growth, MTT; assay type: cell-based, human
Protocol: For cell proliferation assays, cells were grown in 10% FCS culture medium containing various amounts of IFNs and/or sodium stibogluconate in 96 well plates and cultured at 37° C. for 3 or 6 days as indicated. The numbers of viable cells in proliferation assays were determined by MTT assays as described in Phatak et al., J. Immunol. 167, 3391 (2001).
Renca (Murphy, G. P., and W. J. Hrushesky. 1973. A murine renal cell carcinoma. J Natl Cancer Inst 50:1013), Jurkat (Gillis, S., and J. Watson. 1980. Biochemical and biological characterization of lymphocyte regulatory molecules. V. Identification of an interleukin 2-producing human leukemia T cell line. J Exp Med 152:1709) and WM9 (Forsberg, K., I. Valyi-Nagy, C. H. Heldin, M. Herlyn, and B. Westermark. 1993. Platelet-derived growth factor (PDGF) in oncogenesis: development of a vascular connective tissue stroma in xenotransplanted human melanoma producing PDGF-BB. Proc Natl Acad Sci USA 90:393) cell lines were obtained from a colleague at the Cleveland Clinic Foundation (CCF) and cultured in RPMI 1640 medium supplemented with 10% fetal calf serum (FCS). Recombinant IL-2 (Proleukin, 22 million IU/1.3 mg, Chiron, Emeryville, Calif.) was purchased from the CCF pharmacy. SSG has been described previously (Yi, T., M. K. Pathak, D. J. Lindner, M. E. Ketterer, C. Farver, and E. C. Borden. 2002. Anticancer activity of sodium stibogluconate in synergy with IFNs. J Immunol 169:5978).
NIH3T3 (Yi, et al., Blood 85, 87 (1995)), WM9 (Forsberg, et al., Proc. Nat. Acad Sci. USA 90, 393 (1993)), DU145 (Mickey, et al., Cancer Res. 37, 4049 (1977)), LoVo (Drewinko, et al., Cancer Res. 36, 467 (1976)), HEY (Buick, et al., Cancer Res. 45, 3668 (1985)), U251 (Yoshida, et al., Cancer 50, 410 (1982)), A549 (Giard, et al., J. Natl. Cancer Inst. 51, 1417 (1973)) and SK-N-SH (Helson, et al., Cancer Res. 35, 2594 (1975)) cell lines have been described and were cultured in RPMI 1640 supplemented with 10% fetal calf serum (FCS). For measurement of sodium stibogluconate effects on cell growth in vitro, cells were cultured in the absence (−) or presence (+) of various amounts of sodium stibogluconate for 6 days with viable cells quantified by MTT assays (Mosmann, J. Immunol. Methods 65, 55 (1983)). Percentages of growth inhibition by sodium stibogluconate were calculated (.+−.x%).

inhibitory activity against SHP-1 [1]: no obvious inhibitory activity
SMILES: N=C(N)c1ccc(OCCCCCOc2ccc(C(=N)N)cc2)cc1 [pentamidine]
effect on IFN-alpha-induced growth inhibition of WM9 ([2]; most obviously at 0.625-1.25 μg/ml): augmented IFN-alpha-induced growth inhibition
growth inhibition of WM9 cells ([2]; single agent, 2.5-5 μg/ml, 6 days): 86-97%

inhibitory activity against SHP-1 [1]: no obvious inhibitory activity
SMILES: CC(=O)N1CCN(c2ccc(OCC3COC(Cn4ccnc4)(c4ccc(Cl)cc4Cl)O3)cc2)CC1 (centres unmarked) [ketoconazole]
effect on IFN-alpha activity, WM9 ([2]; 40 μg/ml): minor augmenting effect
activity against WM9 cells ([2]; 0.625-20 μg/ml, single agent or with IFN-alpha): no apparent activity
inhibition at 40 µg/mL ([2]; Homo sapiens, WM9, 144 h, single agent, 40 μg/ml, 6 days): 67%

SMILES: O.O.O.O.O.O.O.O.O.O=C([O-])[C@@H]1[O][Sb]2([O-])([O][Sb]34([OH])[O][C@H]([C@H](O)CO)[C@H]([O]3)[C@H](C(=O)[O-])[O]4)[O][C@H]([C@H](O)CO)[C@@H]1[O]2.[Na+].[Na+].[Na+] [sodium stibogluconate]
activity of parental mixture against recombinant SHP-1 ([1]; Sb concentration of 10 μg/ml): inactivated SHP-1
inhibition of GST/SHP-1 after washing (reversibility) ([1]; pre-incubated 30 min at 4 °C, beads washed 3 times): not affected by washing
WM9 cells, single agent ([2]; 50 μg/ml and 100 μg/ml, day 6 culture): killed all cells
WM9 cell growth in culture ([2]; SSG, 6 days, comparable conditions): inhibited by SSG in a dose-dependent manner
